One compound from patent publication US20090042991A1, “Methods of increasing natural killer cell activity for therapy” (priority 2005, published 2009) can be followed below.

Where “and” joins values, the source holds several entries; their conditions need not be identical. Equal entries are not always repeated. Entries after “also recorded” stand apart in the source; their conditions may differ.

The subject of one data set is soft tissue sarcomas. Put plainly: Phase 2 study: tumor response with paclitaxel. It is filed as in vivo, human. The text has this: Major inclusion criteria are refractory or recurrent soft tissue sarcomas other than gastrointestinal stromal tumor (GIST), with evidence of recent progression. […] Best Response indicates an evaluation of the patient's tumor: PR=at least a 30% decrease in the sum of the longest diameters as compared to baseline; SD indicates less than 20% of an increase and less than 30% of a decrease in the sum of the longest diameters as compared to baseline; and PD=at least a 20% increase in the sum of the longest diameters as compared to baseline. NK Activity indicates the change in NK activity before and after dosing.

Data set [1] is described as follows: Phase 1/2 lung carcinoma study: safety. Type of data set: in vivo, human. The procedure:
Phase 1 (safety/PK/MTD (maximum tolerated dose) was followed by a Phase 2 randomized two arm portion. Two dose levels were evaluated in Phase 1.
Dosing was IV q 3 weeks for up to 6 cycles in the absence of dose-limiting toxicity or progression. […] The phase 2 primary endpoint is time to progression, with secondary endpoints of response rate, survival, and quality of life. Study pharmacodynamic parameters include NK cell activity and Hsp70 level.

The test system of the next data set is Hsp70. The experiment in a line: Phase I trial: plasma Hsp70 by sandwich ELISA. It is filed as in vivo, human. How it is done: Plasma Hsp70 was measured by a sandwich ELISA kit (Stressgen Bioreagents Victoria, British Columbia, CANADA) according to a modified protocol in house. In brief, Hsp70 in plasma specimens and serial concentrations of Hsp70 standard were captured onto 96-well plate on which anti-Hsp70 antibody was coated. Then captured Hsp70 was detected with a biotinylated anti-Hsp70 antibody followed by incubation with europium-conjugated streptavidin. After each incubation unbound materials were removed by washing. Finally, antibody-Hsp70 complex was measured by time resolved fluorometry of europium. Concentration of Hsp70 was calculated from a standard curve.
(An ELISA detects its analyte on a solid surface through an enzyme-linked reagent.)

For data set [2], the system named is advanced metastatic melanoma. Put plainly: 2 stage Phase 2 study: tumor response with paclitaxel. It is filed as in vivo, human. Conditions: for Best Response cycle 2 week 4: one value per subject. The procedure: The higher tolerated dose level was expanded to a total of 20 patients (Stage 1). The study will continue to Stage 2 if 7 or more patients have a response of stable disease or better, or at least 2 patients have a partial response or better. A safety assessment was performed with the first 6 patients enrolled as the weekly dose schedule had not previously been studied in humans. The primary endpoint is non-progression rate (NPR) at 3 months and response rate. Pharmacodynamic parameters include pre and post-dose NK cell activity in blood and when possible, tumor biopsies. […] Best Response indicates an evaluation of the patient's tumor: SD indicates less than 20% of an increase and less than 30% of a decrease in the sum of the longest diameters as compared to baseline; and PD=at least a 20% increase in the sum of the longest diameters as compared to baseline. NK Activity indicates the change in NK activity before and after dosing.

A further data set can be described thus: Melanoma study: safety. Type of data set: in vivo, human. The procedure:
The higher tolerated dose level was expanded to a total of 20 patients (Stage 1).
The study will continue to Stage 2 if 7 or more patients have a response of stable disease or better, or at least 2 patients have a partial response or better. A safety assessment was performed with the first 6 patients enrolled as the weekly dose schedule had not previously been studied in humans. The primary endpoint is non-progression rate (NPR) at 3 months and response rate. Pharmacodynamic parameters include pre and post-dose NK cell activity in blood and when possible, tumor biopsies.

For the compound `CN(NC(=O)CC(=O)NN(C)C(=S)c1ccccc1)C(=S)c1ccccc1` [Compound (1)], the “Best Response cycle 2” value in the data set with soft tissue sarcomas (Paclitaxel 80 + Cmpnd (1) 213 mg/M^2 weekly, one value per subject) is “SD (less than 20% of an increase and less than 30% of a decrease in the sum of the longest diameters as compared to baseline); also recorded: PD (at least a 20% increase in the sum of the longest diameters as compared to baseline)”. Further, the “patients with at least a 20% increase in sum of longest diameters (PD)” value in the data set with soft tissue sarcomas (patients completing the study (#23-#29, #31-33)) was “five patients”; in data set [2] (patients completing the study (#12-#20, #22)), “seven patients”. Also, the “first cycle dose-limiting toxicities” value in data set [1] (Phase 1, Cohorts 1 and 2, 16 patients, with carboplatin AUC 6 and paclitaxel) was “No first cycle dose-limiting toxicities”. Besides, in data set [1] (Phase 1, usually Grade 1-2, with carboplatin and paclitaxel), the “adverse effects (AEs)” value is “arthralgia and myalgia, peripheral neuropathy, rash, nausea, and vomiting, fatigue, alopecia, edema, dehydration, constipation, and decreased blood counts”. Also, the “tolerability of carboplatin:paclitaxel:Compound (1) combination” value in data set [1] (at the dose levels studied, safety profile similar to carboplatin:paclitaxel alone) is given as “well tolerated”. The “percent increase in Hsp70 plasma levels” value with Hsp70 (Compound (1) 88 mg/m2 with paclitaxel, at least one patient) is listed as “about 90%”. Further, the “increase in Hsp70 plasma concentrations” value is “more than doubled” in the data set on Hsp70 (Compound (1) 175 mg/m2 with paclitaxel, two patients); “roughly doubled; also recorded: more than 250%” in the data set on Hsp70 (Compound (1) 263 mg/m2 with paclitaxel, individual patients); “roughly doubled and ≤ 500%” with Hsp70 (Compound (1) 438 mg/m2 with paclitaxel, individual patients). Moreover, the “Induction of Hsp70 protein in plasma” value with Hsp70 (Compound (1) with paclitaxel, human plasma) was “dose dependent”. Also, the “plasma Hsp70 levels in patients” value in the data set with Hsp70 (paclitaxel 175 mg/m2 and Compound (1) 88 through 438 mg/m2) was “dramatically increased”. In addition, in data set [2] (20 evaluable patients, Stage 1), the “non-progression rate (NPR) at 3 months” value came to 55%. In addition, the “Best Response cycle 2 week 4” value is “SD (less than 20% of an increase and less than 30% of a decrease in the sum of the longest diameters as compared to baseline); also recorded: PD (at least a 20% increase in the sum of the longest diameters as compared to baseline)” in data set [2] (Paclitaxel 80 + Cmpnd (1) 106 mg/M^2 weekly); “SD (less than 20% of an increase and less than 30% of a decrease in the sum of the longest diameters as compared to baseline); also recorded: PD (at least a 20% increase in the sum of the longest diameters as compared to baseline)” in data set [2] (Paclitaxel 80 + Cmpnd (1) 213 mg/M^2 weekly). Moreover, the “patients stable at 3 months” value in data set [2] (of 20 evaluable patients, Stage 1) is 11 patients. For the same compound, in the data set “Melanoma study: safety” (Stage 1, with paclitaxel 80 mg/m2 weekly), the adverse events result was “as expected for paclitaxel chemotherapy administration”. Moreover, in “Melanoma study: safety” (initial safety assessment, Compound (1) 106 or 213 mg/m2 with paclitaxel 80 mg/m2 weekly), the dose-limiting toxicities result is reported as “absence of dose-limiting toxicities”. The “tolerability of the combination therapy” value in the data set “Melanoma study: safety” (weekly schedule with paclitaxel) is reported as “well-tolerated”. The “serious effects specifically attributable to Compound (1)” value (35 patients, 8 dose levels, with paclitaxel IV every 3 weeks) is recorded as “No serious effects”. Further, for the setting “Phase I, with paclitaxel, adverse events consistent with those expected for paclitaxel alone”, the “tolerability of the combination” value was “well-tolerated”.
